Key:
human D2L receptor = human D2L receptor (Homo sapiens, UniProt P14416); assay: Radioligand binding [3H]-raclopride, HEK293 membranes; settings: HEK293 cells, human D2; read-out: hD2 [3H]-Raclopride Ki ± SEM
Description: (§1) Rat brain cortical membranes were used as source of native rat D1 receptor protein, and human D2 receptor was recombinantly expressed in HEK293 cells.
HEK293 cells with stable expression of human D2L receptor were maintained at 37 °C in a humidified atmosphere with 5% CO2 and grown in Dulbecco’s Modifier Eagle Medium containing 10% dialyzed fetal bovine serum and 500 µg/mL G418 sulfate. For membrane preparation, cells were subcultured in 150 cm^2 flasks, grown to 90% confluence, washed twice with prewarmed to 37 °C phosphate buffered saline (PBS), and pelleted by centrifugation (200× g) in PBS containing 0.1 mM EDTA and 1 mM dithiothreitol. Prior to membrane preparation, pellets were stored at −80 °C.
Cell pellets were thawed and homogenized in 10 volumes of assay buffer using an Ultra Turrax tissue homogenizer and centrifuged twice at 35,000× g for 15 min at 4 °C. The incubation buffer consisted of 50 mM Tris-HCl, 1 mM EDTA, 4 mM MgCl2, 120 mM NaCl, 5 mM KCl, 1.5 mM CaCl2, and 0.1% ascorbate. Assay was incubated in a total volume of 200 µL in 96-well microtiter plate for 1 h at 37 °C. The process of equilibration was terminated by rapid filtration through Unifilter plate with a 96-well cell harvester and radioactivity retained on the filter was quantified on a Microbeta plate reader (PerkinElmer). For competition studies, the assay samples contained radioligand 2.5 nM [^3H]-raclopride (PerkinElmer). Non-specific binding was defined with 10 µM of haloperidol. Each compound was tested in triplicate at 7 concentrations (10^−10–10^−4 M). The inhibition constants (Ki) were calculated from the Cheng–Prusoff equation [66]. Results were expressed as means of at least two separate experiments.

human PDE4B1 = biological target: T1, human PDE4B1 (Homo sapiens, UniProt Q07343); assay: PDElight HTS cAMP phosphodiesterase assay, PDE4B1; type: biochemical; settings: for inhibition at 10 µM: read-out: PDE 4B1 % Inhibition ± SEM at 10 µM; for IC50: read-out: PDE 4B1 IC50 ± SEM
T1 construct: purchased BPS Biosciences
Description: Further biological evaluation of the presented compound library was performed determining inhibitory potencies against selected human PDE isoforms, namely, PDE4 and PDE10 (for results see Table 3).
Tested and reference compounds were dissolved in dimethyl sulfoxide (DMSO) at a concentration of 10 mM and further diluted in assay buffer (10 mM Tris-HCl, 10 mM magnesium chloride and 0.05% Tween-20; pH 7.4). Inhibition of human PDE10A and 4B1 was measured using PDElight HTS cAMP phosphodiesterase assay kit (Lonza, Basel, Switzerland) according to manufacturer’s recommendations. Then, 10 ng of PDE10A and 5 ng of PDE4B1 (BPS Biosciences, San Diego, CA, USA) in appropriate buffer was incubated with reference and tested compound for 20 min. […] Then PDELight AMP Detection Reagent was added and incubated 10 min. All reactions were carried out at 37 °C in 96 white-walled, half-area-well plates (PerkinElmer). Luminescence was measured in a multifunction plate reader (POLARstar Omega, BMG Labtech, Ortenberg, Germany). The percentage of inhibition and IC50s were computed using GraphPad Prism Version 6.0 software.

rat D1 receptor = biological target: T2, rat D1 receptor (Rattus norvegicus, UniProt P18901); assay: Radioligand binding [3H]SCH23390, rat brain tissue; settings: for Ki: native rat D1 receptor, read-out: rD1 [3H]SCH23390 Ki ± SEM; for inhibition at 1 µM: read-out: rD1 [3H]SCH23390 % inhibition ± SEM at 1 µM
T2 construct: source of native rat D1 receptor protein; from tissue; host or cells: rat striatum (methods) / rat brain cortical membranes
Description: as §1
Rat striatum tissue was thawed in 50 volumes of ice-cold 50 mM potassium phosphate buffer, pH 7.4, homogenized and centrifuged at 20,000× g for 20 min. The resulting pellet was resuspended in the same quantity of the buffer and centrifuged again for 20 min. Binding experiments were conducted in 96-well microplates in a total volume of 250 μL of appropriate buffers. Reaction mix included 50 μL solution of test compound, 50 μL of radioligand, and 150 μL of tissue suspension (3 mg/mL). [^3H]SCH23390 (spec. act. 81.9 Ci/mmol, PerkinElmer, NET 930) was used for labeling the D1-receptor. For measuring unspecific binding, cis(Z)flupentixol—5 μM was applied. Samples were incubated at 30 °C for 60 min. The incubation was terminated by rapid filtration over glass fiber filters GF/B using a Harvester (PerkinElmer, USA). The radioactivity was measured in MicroBeta TriLux 1450—liquid scintillation counter (PerkinElmer). Each compound was tested in a screening assay in duplicate at final concentrations of 1 µM. Results were expressed as a percent of inhibition of specific binding.

rat A1 (rA1) ARs = biological target: T3, rat A1 (rA1) ARs (Rattus norvegicus, UniProt P25099); assay: Radioligand binding [3H]CCPA, rat brain cortical membranes; settings: read-out: rA1 [3H]CCPA Ki ± SEM
T3 construct: using rat brain cortical membrane preparations for A1; tissue Pel Freez; host or cells: rat brain cortex membranes
T3 sequence (P25099 1-326): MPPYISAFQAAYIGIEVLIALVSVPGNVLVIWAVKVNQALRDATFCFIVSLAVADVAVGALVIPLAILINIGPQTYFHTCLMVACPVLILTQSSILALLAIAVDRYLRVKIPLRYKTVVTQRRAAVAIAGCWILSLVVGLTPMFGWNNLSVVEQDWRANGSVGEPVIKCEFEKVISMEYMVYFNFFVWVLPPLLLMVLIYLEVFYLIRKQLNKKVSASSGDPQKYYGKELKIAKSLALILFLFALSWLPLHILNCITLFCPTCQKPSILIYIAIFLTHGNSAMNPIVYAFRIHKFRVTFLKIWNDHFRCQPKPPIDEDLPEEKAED
Description: The final compounds were tested in radioligand binding assays to evaluate their affinity for all four ARs subtypes (see Table 2). Rat brain cortical membrane preparations were used as a source of rat A1 (rA1) ARs, and rat brain striatal membrane preparations served as a source of rat A2A (rA2A) ARs. For A2B- and A3AR assays, membrane preparations of Chinese hamster ovary (CHO) cells recombinantly expressing either human A2B (hA2B) or human A3 (hA3) ARs were employed.
Adenosine receptor radioligand binding assays were performed as previously described using rat brain cortical membrane preparations for A1 and rat brain striatal membrane preparations for A2A AR assays. Frozen rat brains (unstripped) were obtained from Pel Freez, Rogers, AR, USA. For assays at human AR subtypes, cell membranes of CHO cells recombinantly expressing the respective receptor were used. The following compounds were employed as radioligands: A1: [^3H]2-chloro-N^6-cyclopentyladenosine ([^3H]CCPA); A2A: [^3H]3-(3-hydroxypropyl)-7-methyl-8-(m-methoxystyryl)-1-propargylxanthine ([^3H]MSX-2); A2B: [^3H]8-(4-(4-(4-chlorophenyl)piperazine-1-sulfonyl)phenyl)-1-propylxanthine ([^3H]PSB-603); A3: [^3H]phenyl-8-ethyl-4-methyl-(8R)-4,5,7,8-tetrahydro-1H-imidazo[2,1-i]purine-5-one ([^3H]PSB-11). Initially, a single high concentration of compound was tested (1 µM). For potent compounds, full concentration–inhibition curves were determined using six to ten different concentrations of test compound spanning three orders of magnitude. At least three independent experiments were performed. Data were analyzed using GraphPad PRISM program version 4.0 or higher (Graph Pad, San Diego, CA, USA).

T2 sequence (P18901 whole entry): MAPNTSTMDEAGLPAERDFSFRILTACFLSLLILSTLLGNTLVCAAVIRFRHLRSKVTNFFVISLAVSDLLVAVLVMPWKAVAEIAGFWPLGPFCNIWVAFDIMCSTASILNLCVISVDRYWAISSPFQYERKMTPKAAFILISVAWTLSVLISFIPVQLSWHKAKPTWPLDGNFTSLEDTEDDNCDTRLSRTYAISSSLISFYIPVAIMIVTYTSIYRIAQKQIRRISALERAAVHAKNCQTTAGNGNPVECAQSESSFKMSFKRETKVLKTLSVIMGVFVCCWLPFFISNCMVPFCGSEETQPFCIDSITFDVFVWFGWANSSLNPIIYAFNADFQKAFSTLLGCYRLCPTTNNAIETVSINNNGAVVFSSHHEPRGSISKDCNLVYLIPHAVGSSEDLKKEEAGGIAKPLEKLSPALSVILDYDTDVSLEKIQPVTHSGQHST
Sequence of human D2L receptor (P14416 whole entry): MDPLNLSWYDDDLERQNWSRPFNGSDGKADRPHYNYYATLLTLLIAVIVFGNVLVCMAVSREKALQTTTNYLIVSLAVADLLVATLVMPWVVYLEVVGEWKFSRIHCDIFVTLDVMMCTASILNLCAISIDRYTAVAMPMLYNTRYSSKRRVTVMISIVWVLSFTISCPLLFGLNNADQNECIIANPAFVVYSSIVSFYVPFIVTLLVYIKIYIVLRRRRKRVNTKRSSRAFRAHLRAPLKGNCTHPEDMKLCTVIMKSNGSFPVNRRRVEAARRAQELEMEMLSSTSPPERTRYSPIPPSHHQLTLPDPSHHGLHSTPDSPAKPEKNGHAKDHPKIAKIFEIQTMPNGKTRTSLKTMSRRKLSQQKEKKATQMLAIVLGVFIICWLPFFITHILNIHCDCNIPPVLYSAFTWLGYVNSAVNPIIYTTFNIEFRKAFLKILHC
T1 sequence (Q07343 whole entry): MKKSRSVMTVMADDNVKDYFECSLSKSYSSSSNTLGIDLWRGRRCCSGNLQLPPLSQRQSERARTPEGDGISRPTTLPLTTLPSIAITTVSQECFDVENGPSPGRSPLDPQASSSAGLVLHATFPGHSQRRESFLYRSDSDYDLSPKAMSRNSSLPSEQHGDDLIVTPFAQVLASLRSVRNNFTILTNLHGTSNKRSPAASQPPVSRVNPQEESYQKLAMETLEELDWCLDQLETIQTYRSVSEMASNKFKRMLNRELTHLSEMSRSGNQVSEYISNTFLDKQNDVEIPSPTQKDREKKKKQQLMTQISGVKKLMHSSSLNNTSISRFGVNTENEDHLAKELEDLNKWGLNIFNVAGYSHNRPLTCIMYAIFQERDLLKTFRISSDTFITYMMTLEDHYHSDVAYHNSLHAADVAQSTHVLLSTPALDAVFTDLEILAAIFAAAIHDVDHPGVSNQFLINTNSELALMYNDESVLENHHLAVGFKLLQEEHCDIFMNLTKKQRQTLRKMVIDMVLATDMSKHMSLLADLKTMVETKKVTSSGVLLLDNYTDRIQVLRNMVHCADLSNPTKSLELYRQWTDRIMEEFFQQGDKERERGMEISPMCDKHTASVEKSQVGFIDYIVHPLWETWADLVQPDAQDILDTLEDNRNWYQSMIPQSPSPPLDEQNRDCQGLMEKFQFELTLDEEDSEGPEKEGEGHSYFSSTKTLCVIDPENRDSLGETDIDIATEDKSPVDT

Cn1c(=O)c2c(nc3n2CCCCN3CCc2ccc(O)c(O)c2)n(C)c1=O [Compound 20b, 10-(3,4-Dihydroxyphenethyl)-1,3-dimethyl-7,8,9,10-tetrahydro-1H-[1, 3]diazepino[2,1-f]purine-2,4(3H,6H)-dione]
Ki (human D2L receptor): 10.7 ± 1.4 µM | inhibition at 10 µM (human PDE4B1): 45% | IC50 (human PDE4B1): > 10 µM | Ki (rat D1 receptor): > 1 µM | inhibition at 1 µM (rat D1 receptor): 15% | Ki (rat A1 (rA1) ARs): 1.05 ± 0.17 µM

CCCCn1c(=O)c2c(nc(NCCc3ccc(O)c(O)c3)n2CCC)n(CCCC)c1=O [Compound 13, 1,3-Dibutyl-8-((3,4-dihydroxyphenethyl)amino)-7-propyl-3,7-dihydro-1H-purine-2,6-dione]
Ki (human D2L receptor): 4.39 ± 0.43 µM | inhibition at 10 µM (human PDE4B1): 28% | IC50 (human PDE4B1): > 10 µM | Ki (rat D1 receptor): > 1 µM | inhibition at 1 µM (rat D1 receptor): 2% | Ki (rat A1 (rA1) ARs): 0.1 ± 0.015 µM

CCCCn1c(NCCc2ccc(O)c(O)c2)nc2c1c(=O)n(C)c(=O)n2C [Compound 11e, 7-Butyl-8-((3,4-dihydroxyphenethyl)amino)-1,3-dimethyl-3,7-dihydro-1H-purine-2,6-dione]
Ki (human D2L receptor): 12.7 ± 1.86 µM | IC50 (human PDE4B1): 3.16 ± 0.53 µM | Ki (rat D1 receptor): > 1 µM | inhibition at 1 µM (rat D1 receptor): 13% | Ki (rat A1 (rA1) ARs): 0.304 ± 0.066 µM

CCCCCCn1c(NCCc2ccc(O)c(O)c2)nc2c1c(=O)n(C)c(=O)n2C [Compound 11i, 8-((3,4-Dihydroxyphenethyl)amino)-7-hexyl-1,3-dimethyl-3,7-dihydro-1H-purine-2,6-dione]
Ki (human D2L receptor): 6.68 ± 0.95 µM | inhibition at 10 µM (human PDE4B1): 42% | IC50 (human PDE4B1): > 10 µM | Ki (rat D1 receptor): > 1 µM | inhibition at 1 µM (rat D1 receptor): 9% | Ki (rat A1 (rA1) ARs): > 10 µM

CCn1c(NCCc2ccc(O)c(O)c2)nc2c1c(=O)n(C)c(=O)n2C [Compound 11b, 8-((3,4-Dihydroxyphenethyl)amino)-7-ethyl-1,3-dimethyl-3,7-dihydro-1H-purine-2,6-dione]
Ki (human D2L receptor): 16.2 ± 1.23 µM | IC50 (human PDE4B1): 2.52 ± 0.14 µM | Ki (rat D1 receptor): > 1 µM | inhibition at 1 µM (rat D1 receptor): 15% | Ki (rat A1 (rA1) ARs): 0.479 ± 0.095 µM

CCCCn1c(=O)c2c(nc3n2CCCN3CCc2ccc(O)c(O)c2)n(CCCC)c1=O [Compound 22, 1,3-Dibutyl-9-(3,4-dihydroxyphenethyl)-6,7,8,9-tetrahydropyrimido[2,1-f]purine-2,4(1H,3H)-dione]
Ki (human D2L receptor): 16.6 ± 2.3 µM | inhibition at 10 µM (human PDE4B1): 24% | IC50 (human PDE4B1): > 10 µM | Ki (rat D1 receptor): > 1 µM | inhibition at 1 µM (rat D1 receptor): 11% | Ki (rat A1 (rA1) ARs): 0.053 ± 0.008 µM

Cn1c(=O)c2c(nc3n2CCCN3CCc2ccc(O)c(O)c2)n(C)c1=O [Compound 20a, 9-(3,4-Dihydroxyphenethyl)-1,3-dimethyl-6,7,8,9-tetrahydropyrimido[2,1-f]purine-2,4(1H,3H)-dione]
Ki (human D2L receptor): 6.68 ± 0.87 µM | inhibition at 10 µM (human PDE4B1): 44% | IC50 (human PDE4B1): > 10 µM | Ki (rat D1 receptor): > 1 µM | inhibition at 1 µM (rat D1 receptor): 15% | Ki (rat A1 (rA1) ARs): ≥ 10 µM

Cn1c(=O)c2c(nc(NCCc3ccc(O)c(O)c3)n2C)n(C)c1=O [Compound 11a, 8-((3,4-Dihydroxyphenethyl)amino)-1,3,7-trimethyl-3,7-dihydro-1H-purine-2,6-dione]
Ki (human D2L receptor): 25.2 ± 5.97 µM | IC50 (human PDE4B1): 7.85 ± 1.85 µM | Ki (rat D1 receptor): > 1 µM | inhibition at 1 µM (rat D1 receptor): 13% | Ki (rat A1 (rA1) ARs): 1.98 ± 0.29 µM

CCCCCn1c(NCCc2ccc(O)c(O)c2)nc2c1c(=O)n(C)c(=O)n2C [Compound 11h, 8-((3,4-Dihydroxyphenethyl)amino)-1,3-dimethyl-7-pentyl-3,7-dihydro-1H-purine-2,6-dione]
Ki (human D2L receptor): 8.26 ± 0.48 µM | IC50 (human PDE4B1): 4.43 ± 0.25 µM | Ki (rat D1 receptor): > 1 µM | inhibition at 1 µM (rat D1 receptor): 12% | Ki (rat A1 (rA1) ARs): 0.191 ± 0.03 µM

CCCn1c(=O)c2c(nc(NCCc3ccc(O)c(O)c3)n2CCC)n(CCC)c1=O [Compound 12, 8-((3,4-Dihydroxyphenethyl)amino)-1,3,7-tripropyl-3,7-dihydro-1H-purine-2,6-dione]
Ki (human D2L receptor): 13.3 ± 2.2 µM | IC50 (human PDE4B1): 14.5 ± 0.48 µM | Ki (rat D1 receptor): > 1 µM | inhibition at 1 µM (rat D1 receptor): 9% | Ki (rat A1 (rA1) ARs): 0.13 ± 0.031 µM

CCCn1c(=O)c2c(nc3n2CCCN3CCc2ccc(O)c(O)c2)n(CCC)c1=O [Compound 21, 9-(3,4-Dihydroxyphenethyl)-1,3-dipropyl-6,7,8,9-tetrahydropyrimido[2,1-f]purine-2,4(1H,3H)-dione]
Ki (human D2L receptor): 12.7 ± 2.8 µM | IC50 (human PDE4B1): 16.5 ± 0.32 µM | Ki (rat D1 receptor): > 1 µM | inhibition at 1 µM (rat D1 receptor): 12% | Ki (rat A1 (rA1) ARs): 0.07 ± 0.005 µM

Cn1c(=O)c2c(nc(NCCc3ccc(O)c(O)c3)n2Cc2ccccc2)n(C)c1=O [Compound 11j, 7-Benzyl-8-((3,4-dihydroxyphenethyl)amino)-1,3-dimethyl-3,7-dihydro-1H-purine-2,6-dione]
Ki (human D2L receptor): 9.1 ± 1.65 µM | IC50 (human PDE4B1): 3.29 ± 0.54 µM | Ki (rat D1 receptor): > 1 µM | inhibition at 1 µM (rat D1 receptor): 3% | Ki (rat A1 (rA1) ARs): 0.455 ± 0.077 µM

CC(C)Cn1c(NCCc2ccc(O)c(O)c2)nc2c1c(=O)n(C)c(=O)n2C [Compound 11f, 8-((3,4-Dihydroxyphenethyl)amino)-7-isobutyl-1,3-dimethyl-3,7-dihydro-1H-purine-2,6-dione]
Ki (human D2L receptor): 27.6 ± 4 µM | IC50 (human PDE4B1): 3.76 ± 0.16 µM | Ki (rat D1 receptor): > 1 µM | inhibition at 1 µM (rat D1 receptor): 15% | Ki (rat A1 (rA1) ARs): 1.13 ± 0.18 µM

Cn1c(=O)c2c(nc(NCCc3ccc(O)c(O)c3)n2CCOc2ccccc2)n(C)c1=O [Compound 11l, 8-((3,4-Dihydroxyphenethyl)amino)-1,3-dimethyl-7-(2-phenoxyethyl)-3,7-dihydro-1H-purine-2,6-dione]
Ki (human D2L receptor): 8.87 ± 0.94 µM | inhibition at 10 µM (human PDE4B1): 20% | IC50 (human PDE4B1): > 10 µM | Ki (rat D1 receptor): > 1 µM | inhibition at 1 µM (rat D1 receptor): 3% | Ki (rat A1 (rA1) ARs): 0.124 ± 0.022 µM
